Read-outs that look alike come from different tables or passages of the source.
Biological target: T1, LCK (Homo sapiens, UniProt P06239)
T1 construct: LCK KD GST (225-509); GST
Test: LCK-Homogeneous Time Resolved Fluorescent (HTRF) Kinase Assay
Assay type: biochemical
Protocol: LCK-Homogeneous Time Resolved Fluorescent (HTRF) Kinase Assay:
The LCK HTRF assay begins with LCK in the presence of ATP phosphorylating the biotinylated peptide Gastrin. The reaction incubates for 90 min. To quench the assay detection reagents are added which both stop the reaction by diluting out the enzyme and chelating the metals due to the presence of EDTA. Once the detection reagents are added the assay incubates for 30 min to allow for equilibration of the detection reagents.
Buffer conditions are as follows: 50 mM HEPES pH 7.5, 50 mM NaCl, 20 mM MgCl, 5 mM MnCl, 2 mM DTT, 0.05% BSA.
The assay is quenched and stopped with 160 μL of detection reagent. Detection reagents are as follows: Buffer made of 50 mM Tris, pH 7.5, 100 mM NaCl, 3 mM EDTA, 0.05% BSA, 0.1% Tween20.
The assay plate is read in either a Discovery or a RubyStar.

[1] = read-out: activity in the LCK-HTRF Kinase Assay

T1 sequence (P06239 225-509): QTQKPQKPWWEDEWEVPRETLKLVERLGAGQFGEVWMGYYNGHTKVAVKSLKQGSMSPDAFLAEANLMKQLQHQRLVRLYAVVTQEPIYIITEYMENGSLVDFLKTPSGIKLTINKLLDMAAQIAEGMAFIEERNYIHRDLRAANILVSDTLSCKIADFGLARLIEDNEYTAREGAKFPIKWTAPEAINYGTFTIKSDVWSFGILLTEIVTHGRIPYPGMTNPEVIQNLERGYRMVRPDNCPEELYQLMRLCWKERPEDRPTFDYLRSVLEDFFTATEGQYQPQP

Row | SMILES | IC50 [1] | IC50
1 | Cc1cccc(C)c1-n1c(=O)c2cnc(Nc3ccc(N4CCN(CC(N)=O)CC4)cc3)nc2n2c3ccccc3nc12 [No. 50, 2-(4-(4-((6-(2,6-dimethylphenyl)-5-oxo-5,6-dihydropyrimido[5′,4′:5,6]pyrimido[1,2-a]-benzimidazol-2-yl)amino)phenyl)-1-piperazinyl)-acetamide] | < 1000 nM | –
2 | Cc1cccc(C)c1-n1c(=O)c2cnc(Nc3ccc(N4CCN(Cc5cccc(C#N)c5)CC4)cc3)nc2n2c3ccccc3nc12 [No. 53, 3-((4-(4-((6-(2,6-dimethylphenyl)-5-oxo-5,6-dihydropyrimido[5′,4′:5,6]pyrimido[1,2-a]-benzimidazol-2-yl)amino)phenyl)-1-piperazinyl)-methyl)benzonitrile] | < 1000 nM | –
3 | COCCN1CCN(c2ccc(Nc3ncc4c(=O)n(-c5c(C)cccc5C)c5nc6ccccc6n5c4n3)cc2)CC1 [No. 54, 6-(2,6-dimethylphenyl)-2-((4-(4-(2-(methyloxy)ethyl)-1-piperazinyl)phenyl)amino)pyrimido[5′,4′:5,6]-pyrimido[1,2-a]benzimidazol-5(6H)-one] | < 1000 nM | –
4 | COc1ccc(-n2c(=O)c3cnc(Nc4ccc(N5CCN(C)CC5)cc4)nc3n3c4ccccc4nc23)cc1 [No. 57, 6-(4-(methyloxy)phenyl)-2-((4-(4-methyl-1-piperazinyl)phenyl)amino)pyrimido[5′,4′:5,6]-pyrimido[1,2-a]benzimidazol-5(6H)-one] | < 1000 nM | –
5 | Cc1cccc(C)c1N1C(=O)c2cnc(Nc3ccc(N4CCN(C)CC4)cc3)nc2N2CCN=C21 [No. 58, 6-(2,6-dimethylphenyl)-2-((4-(4-methyl-1-piperazinyl)phenyl)amino)-8,9-dihydroimidazo[1,2-a]pyrimido[5,4-e]pyrimidin-5(6H)-one] | < 1000 nM | –
6 | Cc1cccc(C)c1-n1c(=O)c2cnc(Nc3cccc(C(=O)NCCN(C)C)c3)nc2n2c3ccccc3nc12 [No. 65, N-(2-(dimethylamino)ethyl)-3-((6-(2,6-dimethylphenyl)-5-oxo-5,6-dihydropyrimido[5′,4′:5,6]pyrimido[1,2-a]-benzimidazol-2-yl)amino)benzamide] | < 1000 nM | –
7 | CN1CCN(c2ccc(Nc3ncc4c(=O)n(-c5c(Cl)cccc5Cl)c5nc6ccccc6n5c4n3)cc2)CC1 [No. 67, 6-(2,6-dichlorophenyl)-2-((4-(4-methyl-1-piperazinyl)phenyl)amino)pyrimido[5′,4′:5,6]-pyrimido[1,2-a]benzimidazol-5(6H)-one] | – | < 1000 nM
8 | Cc1cccc(C)c1-n1c(=O)c2cnc(Nc3ccc(N4CCN(CCO)CC4)cc3)nc2n2c3ccccc3nc12 [No. 69, 6-(2,6-dimethylphenyl)-2-((4-(4-(2-hydroxyethyl)-1-piperazinyl)phenyl)amino)pyrimido[5′,4′:5,6]-pyrimido[1,2-a]benzimidazol-5(6H)-one] | < 1000 nM | –
9 | Cc1cccc(C)c1-n1c(=O)c2cnc(Nc3ccc(C(=O)NCCN(C)C)cc3)nc2n2c3ccccc3nc12 [No. 71, N-(2-(dimethylamino)ethyl)-4-((6-(2,6-dimethylphenyl)-5-oxo-5,6-dihydropyrimido[5′,4′:5,6]pyrimido[1,2-a]-benzimidazol-2-yl)amino)benzamide] | < 1000 nM | –
10 | Cc1cccc(C)c1-n1c(=O)c2cnc(Nc3ccc(OCCCN4CCN(C(C)C)CC4)c(F)c3)nc2n2c3ccccc3nc12 [No. 72, 6-(2,6-dimethylphenyl)-2-((3-fluoro-4-((3-(4-(1-methylethyl)-1-piperazinyl)propyl)oxy)phenyl)-amino)pyrimido[5′,4′:5,6]pyrimido[1,2-a]-benzimidazol-5(6H)-one] | < 1000 nM | –
11 | Cc1cccc(C)c1-n1c(=O)c2cnc(Nc3ccc(N4CCCN(C)CC4)cc3)nc2n2c3ccccc3nc12 [No. 74, 6-(2,6-dimethylphenyl)-2-((4-(4-methyl-1,4-diazepan-1-yl)phenyl)amino)pyrimido[5′,4′:5,6]pyrimido[1,2-a]benzimidazol-5(6H)-one] | < 1000 nM | –

Now from value to molecule:

Row | IC50 [1] | IC50 | SMILES
12 | < 1000 nM | – | Cc1cccc(C)c1-n1c(=O)c2cnc(Nc3ccc(N4CCN(Cc5cccc(Cl)c5)CC4)cc3)nc2n2c3ccccc3nc12 [No. 51, 2-((4-(4-((3-chlorophenyl)methyl)-1-piperazinyl)-phenyl)amino)-6-(2,6-dimethylphenyl)-pyrimido[5′,4′:5,6]pyrimido[1,2-a]benzimidazol-5(6H)-one]
13 | < 1000 nM | – | COc1cccc(CN2CCN(c3ccc(Nc4ncc5c(=O)n(-c6c(C)cccc6C)c6nc7ccccc7n6c5n4)cc3)CC2)c1 [No. 52, 6-(2,6-dimethylphenyl)-2-((4-(4-((3-(methyloxy)-phenyl)methyl)-1-piperazinyl)phenyl)amino)-pyrimido[5′,4′:5,6]pyrimido[1,2-a]benzimidazol-5(6H)-one]
14 | < 1000 nM | – | COc1cc(Nc2ncc3c(=O)n(-c4c(C)cccc4C)c4nc5ccccc5n4c3n2)ccc1OC[C@H]1CCCN1 [No. 55, 6-(2,6-dimethylphenyl)-2-((3-(methyloxy)4-(((2R)-2-pyrrolidinylmethyl)oxy)phenyl)amino)-pyrimido[5′,4′:5,6]pyrimido[1,2-a]benzimidazol-5(6H)-one]
15 | < 1000 nM | – | Cc1cccc(C)c1-n1c(=O)c2cnc(Nc3ccc(OCCNC(C)C)cc3)nc2n2c3ccccc3nc12 [No. 56, 6-(2,6-dimethylphenyl)-2-((4-((2-((1-methylethyl)-amino)ethyl)oxy)phenyl)amino)pyrimido[5′,4′:5,6]-pyrimido[1,2-a]benzimidazol-5(6H)-one]
16 | < 1000 nM | – | Cc1cccc(C)c1-n1c(=O)c2cnc(Nc3ccc(OCCN4CCCCC4)c(Cl)c3)nc2n2c3ccccc3nc12 [No. 59, 2-((3-chloro-4-((2-(1-piperidinyl)ethyl)oxy)phenyl)-amino)-6-(2,6-dimethylphenyl)pyrimido[5′,4′:5,6]-pyrimido[1,2-a]benzimidazol-5(6H)-one]
17 | < 1000 nM | – | C[C@@H](c1ccccc1)n1c(=O)c2cnc(Nc3ccc(N4CCN(C)CC4)cc3)nc2n2c3ccccc3nc12 [No. 60, 2-((4-(4-methyl-1-piperazinyl)phenyl)amino)-6-((1S)-1-phenylethyl)pyrimido[5′,4′:5,6]pyrimido[1,2-a]-benzimidazol-5(6H)-one]
18 | < 1000 nM | – | Cc1cccc(C)c1-n1c(=O)c2cnc(Nc3ccc(OCCN4CCN(C(C)C)CC4)c(F)c3)nc2n2c3ccccc3nc12 [No. 61, 6-(2,6-dimethylphenyl)-2-((3-fluoro-4-((2-(4-(1-methylethyl)-1-piperazinyl)ethyl)oxy)phenyl)amino)-pyrimido[5′,4′:5,6]pyrimido[1,2-a]benzimidazol-5(6H)-one]
19 | < 1000 nM | – | COc1cc(Nc2ncc3c(=O)n(-c4c(C)cccc4C)c4nc5ccccc5n4c3n2)ccc1OCCN1CCN(C(C)C)CC1 [No. 62, 6-(2,6-dimethylphenyl)-2-((4-((2-(4-(1-methylethyl)-1-piperazinyl)ethyl)oxy)-3-(methyloxy)phenyl)-amino)pyrimido[5′,4′:5,6]pyrimido[1,2-a]-benzimidazol-5(6H)-one]
20 | < 1000 nM | – | COc1cc(Nc2ncc3c(=O)n(-c4c(C)cccc4C)c4nc5ccccc5n4c3n2)ccc1OCCCN1CCN(C(C)C)CC1 [No. 63, 6-(2,6-dimethylphenyl)-2-((4-((3-(4-(1-methylethyl)-1-piperazinyl)propyl)oxy)-3-(methyloxy)phenyl)-amino)pyrimido[5′,4′:5,6]pyrimido[1,2-a]-benzimidazol-5(6H)-one]
21 | < 1000 nM | – | CCN(CC)CCN(C)C(=O)c1ccc(Nc2ncc3c(=O)n(-c4c(C)cccc4C)c4nc5ccccc5n4c3n2)cc1 [No. 64, N-(2-(diethylamino)ethyl)-4-((6-(2,6-dimethylphenyl)-5-oxo-5,6-dihydropyrimido[5′,4′:5,6]pyrimido[1,2-a]-benzimidazol-2-yl)amino)-N-methylbenzamide]
22 | < 1000 nM | – | CCN(CC)CCN(C)C(=O)c1cccc(Nc2ncc3c(=O)n(-c4c(C)cccc4C)c4nc5ccccc5n4c3n2)c1 [No. 66, N-(2-(diethylamino)ethyl)-3-((6-(2,6-dimethylphenyl)-5-oxo-5,6-dihydropyrimido[5′,4′:5,6]pyrimido[1,2-a]-benzimidazol-2-yl)amino)-N-methylbenzamide]
23 | < 1000 nM | – | C[C@H](c1ccccc1)n1c(=O)c2cnc(Nc3ccc(N4CCN(C)CC4)cc3)nc2n2c3ccccc3nc12 [No. 68, 2-((4-(4-methyl-1-piperazinyl)phenyl)amino)-6-((1R)-1-phenylethyl)pyrimido[5′,4′:5,6]pyrimido[1,2-a]-benzimidazol-5(6H)-one]
24 | < 1000 nM | – | Cc1cccc(C)c1-n1c(=O)c2cnc(Nc3ccc(OCCN4CCN(C(C)C)CC4)c(Cl)c3)nc2n2c3ccccc3nc12 [No. 70, 2-((3-chloro-4-((2-(4-(1-methylethyl)-1-piperazinyl)-ethyl)oxy)phenyl)amino)-6-(2,6-dimethylphenyl)-pyrimido[5′,4′:5,6]pyrimido[1,2-a]benzimidazol-5(6H)-one]
25 | < 1000 nM | – | Cc1cccc(C)c1-n1c(=O)c2cnc(Nc3ccc(OCCCN4CCN(C)CC4)c(Cl)c3)nc2n2c3ccccc3nc12 [No. 73, 2-((3-chloro-4-((3-(4-methyl-1-piperazinyl)propyl)-oxy)phenyl)amino)-6-(2,6-dimethylphenyl)-pyrimido[5′,4′:5,6]pyrimido[1,2-a]benzimidazol-5(6H)-one]
26 | < 1000 nM | – | Cc1cccc(C)c1-n1c(=O)c2cnc(Nc3ccc(N4CCCNCC4)cc3)nc2n2c3ccccc3nc12 [No. 75, 2-((4-(1,4-diazepan-1-yl)phenyl)amino)-6-(2,6-dimethylphenyl)pyrimido[5′,4′:5,6]pyrimido[1,2-a]-benzimidazol-5(6H)-one]
